Experimental data reported in PMC9698730 (Molecules, 2022).
Values joined by “and” are separate entries in the source; they are usually repeats but may differ in a detail not shown here. Equal entries are not always repeated. “Also recorded” adds a separate entry of the source. Where two headings read alike, the source gives them in different places.

How the values were obtained:
[1] = tested on: viral replication; details: cited from earlier work
[2] = tested on: FL; assay type: binding
[3] = tested on: RNA-FL complex; assay type: binding, SARS-CoV-2; details: for competition with RNA / nucleic acids binding to FL: DLS, in words
Procedure: To further address whether the ligands may modify the oligomeric status of the FL protein, we performed dynamic light scattering experiments. […] We then tested whether ligand binding to FL could be competitive with nucleic acids binding.
(§1) The experiments were performed on a Malvern nanosizer apparatus. The temperature was set at 20 °C, and 10 scans with a duration of 10 s each were acquired in duplicate for each time and sample. The size distribution in the intensity of the scattered light was obtained using the Cumulants method from the instrumental software, yielding the hydrodynamic diameter. The N NTD concentration was in the range of 40–60 μM, the FL concentration was in the range of 1 to 10 µM in 20 mM Tris buffer at pH = 7.9 containing 100 mM NaCl. The melting experiments were performed at a heating rate of 1 °C/min over the range 30 °C to 65 °C in sealed disposable cuvettes. The apparent melting temperature, Tm, was determined by the first derivative of the melting curve.

[4] = tested on: FL; assay type: binding, SARS-CoV-2; details: for Size (nm) Intensity / Size (nm) Volume: pH 7.9
[5] = biological target: T1, NTD wt (Severe acute respiratory syndrome coronavirus 2, UniProt P0DTC9); assay type: binding
[6] = tested on: DNA-FL complex; experiment: Dynamic light scattering, competition with DNA binding to FL; parameters: species or system SARS-CoV-2; details: for Size, Intensity: percentage in parentheses / Size, Volume: percentage in parentheses / Size (nm) Volume / Size (nm) Intensity: DNA + ligand, 4 µM, FL 4 µM; for Size (nm) Volume: without ligand 15.7 ± 1.2; for Size (nm) Intensity: without ligand 25.3 ± 3.1
Procedure: To further address whether the ligands may modify the oligomeric status of the FL protein, we performed dynamic light scattering experiments. FL (2 µM) presented a main peak at 12.0 ± 0.6 nm in volume (14 nm in intensity); the size of the complex decreased to 10.3 and 7.8 ± 0.3 nm upon addition of 2 µM and 6 µM enkephalin, respectively (Figure 6D). […] We then tested whether ligand binding to FL could be competitive with nucleic acids binding.
as §1

[7] = tested on: patients hospitalized for mild and moderate COVID-19; details: human, in vivo; cited from earlier work
[8] = tested on: model of reconstituted lung epithelium; details: cited from earlier work
[9] = tested on: SARS-CoV-2; details: cited from earlier work
[10] = biological target: T1, NTD wt; details: cited from earlier work

| Compound | effect on viral replication ([1]; ref [17],[18],[34],[35]) | competition with RNA / nucleic acids binding to FL [3] | Size, Intensity: percentage in parentheses [4] | Size, Volume: percentage in parentheses [4] | effect on size (oligomeric status) of FL [4] | Size (nm) Intensity [4] | Size (nm) Volume [4] | further results |
| --- | --- | --- | --- | --- | --- | --- | --- | --- |
| Hemin | decrease viral replication |  |  |  |  |  |  | effect on viral replication ([1]; hemin binding to N, ref [32]): reduce viral replication |
| RPKPQQF-OH [Substance P (1-7), Substance P (1-7) RPKPQQF-OH] |  | competitive with nucleic acids binding to FL; also recorded: consistent with a competition | 10.3 ± 0.6 (50%) 8.0 ± 1.0 (76%) | 9.5 ± 0.6 (98%) 7.2 ± 1.1 (99%) | a larger decrease | 10.3 ± 0.6 (50%) 8.0 ± 1.0 (76%) nm | 9.5 ± 0.6 (98%) 7.2 ± 1.1 (99%) nm | binding to FL by SPR, in words [2]: bound the N FL protein as measured by SPR; also recorded: observed; Size, Intensity: percentage in parentheses ([3]; RNA + ligand, 4 µM, FL 4 µM): 75%; Size, Volume: percentage in parentheses ([3]; RNA + ligand, 4 µM, FL 4 µM): 97%; Size (nm) Volume ([3]; RNA + ligand, 4 µM, FL 4 µM, without ligand 15.1 ± 1.1): 11.3 ± 0.6 nm; Size (nm) Intensity ([3]; RNA + ligand, 4 µM, FL 4 µM, without ligand 21.5 ± 2.0): 16.1 ± 0.6 nm; binding to NTD by SPR, in words [5]: observed; Size, Intensity: percentage in parentheses [6]: 70%; Size, Volume: percentage in parentheses [6]: 91%; Size (nm) Volume [6]: 10.1 ± 0.6 nm; Size (nm) Intensity [6]: 13.8 ± 0.6 nm |
| COc1ccc2c(c1)c(CC(=O)O)c(C)n2C(=O)c1ccc(Cl)cc1 [Indomethacin, indomethacin] | decrease viral replication | consistent with a competition | 11.0 ± 0.4 (30%) 6.7 ± 0.3 (60%) | 10.3 ± 0.5 (100%) 6.3 ± 0.4 (96%) | a larger decrease | 11.0 ± 0.4 (30%) 6.7 ± 0.3 (60%) nm | 10.3 ± 0.5 (100%) 6.3 ± 0.4 (96%) nm | patient recovery [7]: helped the patients to recover |
| COc1ccc2cc([C@H](C)C(=O)O)ccc2c1 [Naproxen, naproxen] |  |  | 12.2 ± 0.5 (40%) 8.7 ± 0.3 (60%) | 11.3 ± 0.4 (99%) 8.9 ± 0.3 (96%) | the same trend was observed | 12.2 ± 0.5 (40%) 8.7 ± 0.3 (60%) nm | 11.3 ± 0.4 (99%) 8.9 ± 0.3 (96%) nm | protection of lung cells against viral injury [8]: protected lung cells against viral injury; replication and inflammation in reconstituted lung epithelium [8]: inhibited replication and reduced inflammation; effect on viral replication [1]: decrease viral replication; viral load of infected cells [9]: reduced the viral load of infected cells; binding to N-terminal domain in vitro [10]: bound to SARS-CoV-2 N-terminal domain (NTD) in vitro |
| Dihydrofolate [DHF] | decrease viral replication | consistent with a competition |  |  |  |  |  | binding to FL by SPR, in words [2]: binding of DHF to the full-length protein was smaller; effect on viral replication ([1]; ref [35]): reduction of viral replication; Kd ([5]; SPR, NTD, ligand range 0.3–10.0 µM, 20 mM HEPES, 100 mM NaCl, 0.05% Tween): ~1 µM and 1 µM |
| Leu-enkephalin |  | competitive with nucleic acids binding to FL; also recorded: consistent with a competition | 12.6 ± 0.6 (31%) 8.7 ± 0.2 (40%) | 11.3 ± 0.6 (96%) 8.0 ± 0.3 (100%) | decreased its size as compared to the size of N alone | 12.6 ± 0.6 (31%) 8.7 ± 0.2 (40%) nm | 11.3 ± 0.6 (96%) 8.0 ± 0.3 (100%) nm | effect on size of N-DNA complex, in words ([6]; DLS, Figure 6E): the size of the N-DNA complex was reduced; Size, Intensity: percentage in parentheses [6]: 89%; Size, Volume: percentage in parentheses [6]: 99%; Size (nm) Volume [6]: 9.0 ± 1.7 nm; Size (nm) Intensity [6]: 10.5 ± 1.2 nm |
| tetrahydrofolate [THF] |  |  |  |  |  |  |  | effect on viral replication ([1]; ref [35]): reduction of viral replication |
